Measurements published in US7553867B2, “Furan or thiophene derivative and medicinal use thereof” (Takeda Pharmaceutical Company Limited, priority 2002, dated 2009).

Key:
[1] = biological target: T1, PPARα-RXRα heterodimer (Homo sapiens, UniProt Q07869); experiment: PPARα-RXRα heterodimer ligand activity (luciferase reporter, transfected COS-1 cells); type: cell-based; settings: luciferase activity at 10 nM compound relative to control without compound as 1
T1 construct: expressed in transfected cells; host or cells: COS-1 (transient; pMCMVneo-hPPARα + pMCMVneo-hRXRα)
T1 sequence (Q07869 1-468): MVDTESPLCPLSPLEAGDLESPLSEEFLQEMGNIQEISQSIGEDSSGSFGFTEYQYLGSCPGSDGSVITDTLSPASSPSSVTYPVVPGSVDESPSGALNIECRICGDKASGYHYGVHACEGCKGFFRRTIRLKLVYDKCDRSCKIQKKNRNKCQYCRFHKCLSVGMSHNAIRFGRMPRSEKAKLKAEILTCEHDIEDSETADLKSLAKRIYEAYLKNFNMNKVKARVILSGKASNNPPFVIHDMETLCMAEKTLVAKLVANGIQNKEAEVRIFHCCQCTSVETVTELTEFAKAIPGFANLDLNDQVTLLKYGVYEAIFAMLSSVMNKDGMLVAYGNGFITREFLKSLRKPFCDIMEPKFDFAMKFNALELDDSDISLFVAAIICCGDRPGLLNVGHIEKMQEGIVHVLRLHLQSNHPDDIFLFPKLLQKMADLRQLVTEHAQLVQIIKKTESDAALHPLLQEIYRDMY
T1 sequence (P19793 1-462 partner): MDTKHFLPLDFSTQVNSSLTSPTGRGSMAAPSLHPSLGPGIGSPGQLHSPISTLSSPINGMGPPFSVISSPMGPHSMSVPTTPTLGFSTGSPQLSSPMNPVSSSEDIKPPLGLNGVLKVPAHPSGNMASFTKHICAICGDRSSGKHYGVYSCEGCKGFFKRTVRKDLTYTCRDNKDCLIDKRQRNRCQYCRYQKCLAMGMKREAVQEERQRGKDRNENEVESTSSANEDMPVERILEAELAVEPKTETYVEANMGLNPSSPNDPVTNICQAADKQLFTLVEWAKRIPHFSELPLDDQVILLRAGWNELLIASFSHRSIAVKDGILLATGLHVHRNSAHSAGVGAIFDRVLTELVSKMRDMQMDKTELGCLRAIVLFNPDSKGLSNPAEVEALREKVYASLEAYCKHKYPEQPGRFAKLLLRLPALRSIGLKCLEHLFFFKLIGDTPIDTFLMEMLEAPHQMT
Protocol: At 18 to 24 hours after transfection carried out in Reference Example 12a, COS-1 cells were collected, suspended in DMEM medium [manufactured by Life Technologies, Inc., USA] containing 0.1% BSA (fatty acid-free) (produced by Waco Pure Chemicals Industries, Ltd.), and inoculated to each well of a 96-well white plate (produced by Corning, USA) at 1×10^4 cells/well in 80 μl. Subsequently, 20 μl of a test compound was added, and the plate was incubated at 37° C. in a carbon dioxide gas incubator for 36 to 48 hours. After removal of the medium from the 96-well white plate, 40 μl of PicaGene LT 7.5 (produced by Waco Pure Chemicals Industries, Ltd.) diluted twofold with HBSS (HANKS' BALANCED SALT SOLUTION) (produced by BIO WHITTAKER) was added, and after stirring, the luciferase activity was determined using 1420 ARVO Multilabel Counter [produced by Wallac].
The fold induction was calculated from the luciferase activity for the well to which 10 nM of the compound is added, relative to the luciferase activity of a control to which the compound is not added as 1. Results are shown in [Table 3].
A COS-1 cell was inoculated in a cell culture flask (produced by Corning, USA) of 150 cm^2 at 5×10^6 cells/50 ml, and incubated under the conditions of 37° C. and 5% CO2 for 24 hours. Transfection was carried out with lipofectamine (produced by Invitrogen, USA). A transfection mixture solution was prepared by mixing 125 μl of lipofectamine, 100 μl of PLUS Reagent, 2.5 μg of pMCMVneo-hPPARα (obtained in Reference Example 11a), 2.5 μg of pMCMVneo-hRXRα (obtained in Reference Example 4a), 5 μg of reporter plasmid pGL3-4ERPP-TK neo (obtained in Reference Example 5a) and 5 μg of pRL-tk [produced by Promega, USA] with 5 ml of opti-MEM (produced by Invitrogen, USA). To COS-1 cell washed with opti-MEM, the above-mentioned transfection mixture solution and 20 ml of opti-MEM were added, and then incubated under the conditions of 37° C. and 5% CO2 for 3 hours. Then, 25 ml of DMEM medium [manufactured by Life Technologies, Inc., USA] containing 0.1% fatty acid-free bovine serum albumin (BSA) (produced by Waco Pure Chemicals Industries, Ltd.) was added thereto, and then incubated under the conditions of 37° C. and 5% CO2 for 18 to 24 hours.

[2] = biological target: T2, human GPR40 (Homo sapiens, UniProt O14842); experiment: Receptor function regulating action (agonist action) for GPR40, intracellular calcium by FLIPR in CHO cells; type: cell-based; settings: CHO cells expressing human GPR40; change of fluorescence intensity at 30 seconds after reaction initiation
T2 construct: expressed in transfected cells; host or cells: CHO cell strain (No. 104)
T2 sequence (O14842 whole entry): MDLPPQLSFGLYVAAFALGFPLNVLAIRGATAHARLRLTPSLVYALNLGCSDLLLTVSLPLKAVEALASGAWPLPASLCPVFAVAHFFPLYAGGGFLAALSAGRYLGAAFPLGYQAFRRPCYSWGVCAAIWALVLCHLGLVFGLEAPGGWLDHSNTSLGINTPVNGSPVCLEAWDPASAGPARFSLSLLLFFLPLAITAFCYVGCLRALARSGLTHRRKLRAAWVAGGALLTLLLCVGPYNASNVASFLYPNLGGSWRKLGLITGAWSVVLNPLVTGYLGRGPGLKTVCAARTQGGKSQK
Protocol: CHO cell strain (No. 104) which have had expressed human GPR40 was diluted to contain 3×10^4 cells/100 μL, and added to a Black walled 96-well plate (Costar) at 100 μL/well, and incubated overnight in CO2 incubator. Change of intracellular calcium concentration was measured with FLIPR (Molecular Device). The method is as follows. 50 μg of Fluo-3AM (DOJIN) was dissolved in 21 μL of DMSO (DOJIN), and the same amount of 20% pluronic acid (Molecular Probes) was further added thereto, and the mixture was mixed. The mixture was added to 10.6 mL of an assay buffer [prepared by adding 10 mL of solution which was produced by adding 20 mL of 1 M HEPES (pH 7.4) (DOJIN) to 1 L of HBSS (Invitrogen), dissolving 710 mg of probenecid (Sigma) in 5 mL of 1N NaOH, and further adding 5 mL of the above-mentioned HBSS/HEPES solution thereto and mixing it.] containing 105 μL of fetal bovine serum, to give a fluorescent dye solution. The medium of the cell plate was removed, and immediately, the fluorescent dye solution was added at 100 μL/well, and incubated in CO2 incubator for 1 hour, allowing the fluorescent dye to be incorporated into the cells. The cells after incubation were washed with the above-mentioned assay buffer. The compound to be added to the cells was diluted with the assay buffer to each concentration, added to the plate for the test sample. After conducting the above-mentioned pretreatment, intracellular calcium concentration change after adding the compound was measured in FLIPR to investigate the agonist action. By dose-response curve with the change of fluorescence intensity value at 30 seconds after reaction initiation, EC50 value was calculated.

SMILES	fold induction at 0.01 µM [1]	EC50 [2]	melting point
Cc1oc(-c2ccc(F)cc2)cc1C(=O)Nc1cccc(CSCC(=O)O)c1 [Example 1, [(3{[5-(4-Fluorophenyl)-2-methyl-3-furoyl]amino}benzyl)thio]acetic acid]	10.2	–	–
CC(C)c1oc(-c2ccc(C(F)(F)F)cc2)cc1C(=O)Nc1cccc(CSCC(=O)O)c1 [Example 2(1), {[3-({2-Isopropyl-5-[4-(trifluoromethyl)phenyl]-3-furoyl}amino)benzyl]thio}acetic acid]	10.9	–	–
Cc1cc(OCc2cc(-c3ccc(F)cc3)oc2C)ccc1CCC(=O)O [Example 5(8), 3-(4-{[5-(4-Fluorophenyl)-2-methyl-3-furyl]methoxy}-2-methylphenyl)propionic acid]	–	100 nM	123 to 125 °C
Cc1cc(OCc2cc(-c3ccc(C(F)(F)F)cc3)oc2C(C)C)ccc1CCC(=O)O [Example 5(10), 3-[4-({2-Isopropyl-5-[4-(trifluoromethyl)phenyl]-3-furyl}methoxy)-2-methylphenyl]propionic acid]	–	870 nM	108 to 109 °C
Cc1oc(-c2ccc(F)cc2)cc1COc1cccc(CSCC(=O)O)c1 [Example 6(1), [(3-{[5-(4-Fluorophenyl)-2-methyl-3-furyl]methoxy}benzyl)thio]acetic acid]	8.9	–	120 to 122 °C
Cc1oc(-c2ccc(C(F)(F)F)cc2)cc1COc1cccc(CSCC(=O)O)c1 [Example 6(2), {[3-({2-Methyl-5-[4-(trifluoromethyl)phenyl]-3-furyl}methoxy)benzyl]thio}acetic acid]	9.2	–	–
Cc1oc(-c2ccc(F)cc2)cc1COc1cccc(CSC(C)(C)C(=O)O)c1 [Example 6, 2-[(3-{[5-(4-Fluorophenyl)-2-methyl-3-furyl]methoxy}benzyl)thio]-2-methylpropionic acid]	9.3	–	–
CCCCC/C=C\C/C=C\C/C=C\CCCCC(=O)O [γ-linolenic acid]	–	2000 nM	–

Results, then the compound that gave them:

fold induction at 0.01 µM [1]	EC50 [2]	melting point	SMILES
10.1	–	–	CCc1oc(-c2ccc(C(F)(F)F)cc2)cc1COc1cccc(CSCC(=O)O)c1 [Example 5(5)]
–	580 nM	118 to 119 °C	CCCCc1oc(-c2ccc(C(F)(F)F)cc2)cc1COc1ccc(CCC(=O)O)c(C)c1 [Example 5(11), 3-[4-({2-Butyl-5-[4-(trifluoromethyl)phenyl]-3-furyl}methoxy)-2-methylphenyl]propionic acid]
–	290 nM	168 to 169 °C	Cc1oc(-c2ccc(C(F)(F)F)cc2)cc1COc1ccc(OCC(=O)O)cc1 [Example 6(7), [4-({2-Methyl-5-[4-(trifluoromethyl)phenyl]-3-furyl}methoxy)phenoxy]acetic acid]
–	–	117 to 118 °C	Cc1oc(-c2ccc(C(F)(F)F)cc2)cc1/C=C\c1ccc(OC(C)(C)C(=O)O)cc1 [Example 22(2), 2-Methyl-2-[4-((Z)-2-{2-methyl-5-[4-(trifluoromethyl)phenyl]-3-furyl}ethenyl)phenoxy]propionic acid]
